According to US20030229451A1, “Methods and systems for analyzing complex biological systems” (priority 2001, published 2003):

What was measured:
[1] = test system: Arabidopsis thaliana plants; assay: SOA1 phenotypic analysis of herbicide-treated Arabidopsis (MIC, Tmic, leaf traits); format: in vivo; conditions: for characteristic morphological symptoms: herbicide-treated Arabidopsis; for leafCurling Dev. / leafTwisting Dev. / leafWidth Dev. / matureLeafAnthocyanins Dev. / matureLeafChlorosis Dev. / matureLeafNecrosis Dev. / newLeafAnthocyanins Dev. / newLeafChlorosis Dev. / newLeafNecrosis Dev. / pointedLeaves Dev.: numeric value standardized to mock treated; for tMic Dev.: time to full range of symptoms at MIC, coded
[2] = test system: Magnaporthe grisea; format: cell-based
[3] = test system: Arabidopsis thaliana; assay: MOA1 biochemical (metabolite) profiling by LC-MS and GC-MS
[4] = test system: Saccharomyces cerevisiae wild type strain BY4743; assay: AF1 metabolite analysis (GC-MS, LC-MS) of yeast cells treated with antifungal drugs; format: cell-based; conditions: P < 0.1; 2x MIC, two hours
[5] = test system: Saccharomyces cerevisiae wild type strain BY4743; assay: AF1 combined gene expression and metabolite mapping to reactions and pathways (KEGG); format: cell-based
Excerpt: The pathway score indicates how meaningful the mapping is, or how likely it is to be correctly indicative of the pathway involved in the perturbation under examination. The method provides a pathway score based on perturbation levels of genes and/or compounds and the information content of each gene and/or compound in the pathway, i.e., a pathway score indicates the extent to which other pathways are mapped to a gene/compound. For example, imagine that two genes are perturbed in a particular experiment. One gene maps to only one pathway, giving a high degree of probability that the perturbed pathway is the one identified in the mapping. The second gene maps to three pathways. In the later example, there is only one-third the probability that the pathway identified in the mapping is the one perturbed. The present invention provides a method for calculating the pathway scores, so that more weight is given to a score of a gene or compound that maps to only one pathway than to a score of a gene or compound that maps to multiple pathways. […] Where n=the total number of genes in the pathway; ipath—count=the number of pathways containing a gene; and j=the number of genes in the pathway that are perturbed. Another factor to be considered when weighting a pathway score is the degree of perturbation. Degree of perturbation can be calculated, for example, based on a number of standard deviations from a norm, and included in an equation such as the one shown above, so that not only the number of pathways is taken into account, but also accounts for the amount of gene transcript or compound present as compared to a control. The data were then combined to determine the number of reactions showing an enzyme and at least one compound perturbed, and to determine the number of pathways having at least one enzyme and one perturbed compound perturbed. The results of the analysis are represented in Tables 16 and 17, and were difficult to interpret, illustrating that the ability to draw conclusions from compound mapping to pathways is limited when absent additional data.

[6] = test system: Arabidopsis thaliana; assay: MOA1 gene expression profiling (22,000 gene array); conditions: for Regulated Genes: Down / Regulated Genes: Up: 1 hr, p < 0.5; for No. of Lethal Genes Altered: genes essential for plant growth and development
[7] = concentrations insufficient to inhibit growth

Structure (SMILES)	characteristic morphological symptoms [1]	leafCurling Dev. [1]	leafTwisting Dev. [1]	leafWidth Dev. [1]	matureLeafAnthocyanins Dev. [1]	matureLeafChlorosis Dev. [1]	matureLeafNecrosis Dev. [1]	newLeafAnthocyanins Dev. [1]	newLeafChlorosis Dev. [1]	newLeafNecrosis Dev. [1]	pointedLeaves Dev. [1]	tMic Dev. [1]	Number of Metabolites Changed: (unknown #) ([3]; 20 min, p < 0.05)	Number of Metabolites Changed: Total # ([3]; 20 min, p < 0.05)	Number of Metabolites Changed: (unknown #) ([3]; 20 min, p < 0.11)	Number of Metabolites Changed: Total # ([3]; 20 min, p < 0.11)	Number of Metabolites Changed: (unknown #) ([3]; 1 hr, p < 0.05)	Number of Metabolites Changed: Total # ([3]; 1 hr, p < 0.05)	Number of Metabolites Changed: (unknown #) ([3]; 1 hr, p < 0.11)	Number of Metabolites Changed: Total # ([3]; 1 hr, p < 0.11)	other results
O=C(O)CNCP(=O)(O)O [Glyphosate]	anthocyanin accumulation in the older leaves accompanied by chlorosis of the newly emerging leaves	0	0	0	3	1	3	1	2	0	1	2	2	4	9	13	9	16	24	46	growth results for Tiers 3 and 4 compared to Unknown 4 ([2]; 250 μg/ml): nearly identical; growth inhibition of M. grisea ([2]; 1.0 mg/ml): remediated by inclusion of aromatic amino acids; tyrosine level ([3]; relative to the control): decreased
CC(=O)N1CCN(c2ccc(OCC3COC(Cn4ccnc4)(c4ccc(Cl)cc4Cl)O3)cc2)CC1 (stereo not drawn) [Ketoconazole]																					# Compounds perturbed [4]: 15; # Reactions Having an Enzyme and at Least One Compound Perturbed [5]: 21; Number Of Pathways Having at Least One Enzyme and One Compound Perturbed (# Reactions) [5]: 24
CP(=O)(O)CCC(N)C(=O)O (stereo not drawn) [Glufosinate]	Chlorosis and leaf curling	2	1	−2	0	3	0	0	3	0	1	1	25	33	33	48	4 (4)	4 (4)	9 (9)	9 (9)	nitrogen source utilization by M. grisea ([2]; in the presence of compound): only able to utilize glutamine and glutamate as nitrogen sources; Regulated Genes: Down [6]: 54; Regulated Genes: Up [6]: 296; No. of Lethal Genes Altered [6]: 10
CS(=O)(=O)c1cc(C(F)(F)F)ccc1C(=O)c1cnoc1C1CC1 [Isoxaflutole]													29	45	39	62	13	14	21	25	growth of M. grisea in minimal media [2, 7]: unaffected; growth of M. grisea in minimal plus tyrosine media [2, 7]: inhibited; Regulated Genes: Down [6]: 370; Regulated Genes: Up [6]: 143; No. of Lethal Genes Altered [6]: 15; phenylalanine level ([3]; relative to the control): up-regulated; tyrosine level ([3]; relative to the control): up-regulated; Alpha-tocopherol level ([3]; relative to the control, early time points): not significantly changed
